The values below come from EP0726261A1, “Herbidical 1,2,4 thiadiazoles” (American Cyanamid Company, priority 1995, dated 1996).

Holding throughout (format): in vivo
Assay [1] deals with Sinapsis alba. The assay can be described thus: Herbicidal activity, postemergence test (Example 66). Also noted: key: A rating of 0 indicates growth as untreated control; a rating of 9 indicates death. To be noted: post; 1000 g/ha; assessed visually twenty days after spraying. As to the method: (§1) To evaluate their herbicidal activity, compounds according to the invention are tested using a representative range of plants: ZEAMX Zea mays ORYSA Oryza sativa GLXMA Glycine max BEAVA Beta vulgaris LIUUT Linum usitatissimum AVEFA Avena fatua ECHCG Echinochloa crus-galli SINAL Sinapsis alba
(§2) The tests fall into two categories, preemergence and postemergence. The preemergence tests involve spraying a liquid formulation of the compound onto the soil in which the seeds of the plant species mentioned above have recently been sown. The postemergence tests involve spraying a liquid formulation of the compound onto seedling plants of the above species.
(§3) The soil used in the tests is a prepared horticultural loam.
(§4) The formulations used in the tests are prepared from solutions of the test compounds in acetone containing 0.4% by weight of an alkylphenol/ethylene oxide condensate available under the trademark TRITON X-155. These acetone solutions are diluted with water and the resulting formulations applied at dosage levels corresponding to 1000 g of active material per hectare in a volume equivalent to 900 litres per hectare.
(§5) In the preemergence tests, untreated sown soil, and in the postemergence tests, untreated soil bearing seedling plants, are used as controls.
(§6) The herbicidal effects of the test compounds are assessed visually twenty days after spraying the foliage and the soil and are recorded on a 0-9 scale. A rating of 0 indicates growth as untreated control, a rating of 9 indicates death. An increase of 1 unit on the linear scale approximates to an 11% increase in the level of effect.

The test system of assay [2] is Echinochloa crus-galli. The assay is described as above. Set-up: key: A rating of 0 indicates growth as untreated control; a rating of 9 indicates death. The conditions noted are these: post; 1000 g/ha; assessed visually twenty days after spraying. As to the method: as §1, §2, §3, §4, §5, §6
Assay [3] has as its system Linum usitatissimum. Described as above. Also noted: key: A rating of 0 indicates growth as untreated control; a rating of 9 indicates death. To be noted: post; 1000 g/ha; assessed visually twenty days after spraying. As to the method: as §1, §2, §3, §4, §5, §6
In assay [4] the test system is Oryza sativa. The assay is described as above. Also noted: key: A rating of 0 indicates growth as untreated control; a rating of 9 indicates death. To be noted: post; 1000 g/ha; assessed visually twenty days after spraying. As to the method:
as §1, §2, §3, §4, §5, §6

Assay [5] has as its system Zea mays. The description is as above. To be noted: post; 1000 g/ha; assessed visually twenty days after spraying. Also noted: key: A rating of 0 indicates growth as untreated control; a rating of 9 indicates death. As to the method: as §1, §2, §3, §4, §5, §6
The test system of assay [6] is Beta vulgaris. Described as above. Set-up: key: A rating of 0 indicates growth as untreated control; a rating of 9 indicates death. The conditions noted are these: post; 1000 g/ha; assessed visually twenty days after spraying. As to the method:
as §1, §2, §3, §4, §5, §6

For assay [7], the system named is Avena fatua. The assay is described as above. Set-up: key: A rating of 0 indicates growth as untreated control; a rating of 9 indicates death. To be noted: post; 1000 g/ha; assessed visually twenty days after spraying. As to the method: as §1, §2, §3, §4, §5, §6
The subject of assay [8] is Sinapsis alba. The assay can be described thus: Herbicidal activity, preemergence test (Example 66). Also noted: key: A rating of 0 indicates growth as untreated control; a rating of 9 indicates death. To be noted: pre; 1000 g/ha; assessed visually twenty days after spraying. As to the method:
as §1, §2, §3, §4, §5, §6

The subject of assay [9] is Echinochloa crus-galli. The assay is described as above. Set-up: key: A rating of 0 indicates growth as untreated control; a rating of 9 indicates death. The conditions noted are these: pre; 1000 g/ha; assessed visually twenty days after spraying. As to the method:
as §1, §2, §3, §4, §5, §6

Assay [10] concerns Linum usitatissimum. The description is as above. Set-up: key: A rating of 0 indicates growth as untreated control; a rating of 9 indicates death. To be noted: pre; 1000 g/ha; assessed visually twenty days after spraying. As to the method: as §1, §2, §3, §4, §5, §6
The test system of assay [11] is Oryza sativa. The description is as above. Also noted: key: A rating of 0 indicates growth as untreated control; a rating of 9 indicates death. The conditions noted are these: pre; 1000 g/ha; assessed visually twenty days after spraying. As to the method:
as §1, §2, §3, §4, §5, §6

Assay [12] has as its system Zea mays. The assay is described as above. Set-up: key: A rating of 0 indicates growth as untreated control; a rating of 9 indicates death. To be noted: pre; 1000 g/ha; assessed visually twenty days after spraying. As to the method: as §1, §2, §3, §4, §5, §6
Assay [13] concerns Beta vulgaris. The description is as above. Also noted: key: A rating of 0 indicates growth as untreated control; a rating of 9 indicates death. To be noted: pre; 1000 g/ha; assessed visually twenty days after spraying. As to the method:
as §1, §2, §3, §4, §5, §6

Assay [14] has as its system Avena fatua. The description is as above. Set-up: key: A rating of 0 indicates growth as untreated control; a rating of 9 indicates death. The conditions noted are these: pre; 1000 g/ha; assessed visually twenty days after spraying. As to the method: as §1, §2, §3, §4, §5, §6
For assay [15], the system named is Glycine max. Described as above. Set-up: key: A rating of 0 indicates growth as untreated control; a rating of 9 indicates death. To be noted: pre; 1000 g/ha; assessed visually twenty days after spraying. As to the method: as §1, §2, §3, §4, §5, §6
Assay [16] concerns Glycine max. The assay can be described thus: Herbicidal activity, postemergence test (Example 66). To be noted: post; 1000 g/ha; assessed visually twenty days after spraying. As to the method: as §1, §2, §3, §4, §5, §6

As for `O=C(NCc1ccccc1)c1nc(-c2ccc(F)cc2)ns1` [Example 20], the results for the “herbicidal effects on a 0-9 scale, SINAL” value in the assay with Sinapsis alba [1] and with Sinapsis alba [8] were 9 and 0, respectively. Moreover, the figures for the “herbicidal effects on a 0-9 scale, ECHCG” value with Echinochloa crus-galli [2] and in the assay with Echinochloa crus-galli [9] were 2 and 0, respectively. Further, the “herbicidal effects on a 0-9 scale, LIUUT” value is given as 6 with Linum usitatissimum [3] and 0 in the assay on Linum usitatissimum [10]. Besides, the “herbicidal effects on a 0-9 scale, ORYSA” value in the assay with Oryza sativa [4] and with Oryza sativa [11] was 0 throughout. Also, the “herbicidal effects on a 0-9 scale, ZEAMX” value with Zea mays [5] and in the assay on Zea mays [12] was 0 throughout. Besides, the “herbicidal effects on a 0-9 scale, BEAVA” value worked out at 9 with Beta vulgaris [6] and 0 with Beta vulgaris [13]. Also, the “herbicidal effects on a 0-9 scale, AVEFA” value in the assay on Avena fatua [7] and in the assay on Avena fatua [14] was 0 in each case. The “herbicidal effects on a 0-9 scale, GLXMA” value with Glycine max [15] was 0; in the assay on Glycine max [16], 6.
In the case of `CC(C)c1nsc(C(=O)NC(C)c2cccs2)n1` (racemic) [Example 1, (R/S)-3-Isopropyl-[1,2,4]thiadiazole-5-carboxylic acid, [1-(2-thienyl)ethyl]amide], the “herbicidal effects on a 0-9 scale, SINAL” value with Sinapsis alba [1] is 9; with Sinapsis alba [8] it was 7. The “herbicidal effects on a 0-9 scale, ECHCG” value in the assay on Echinochloa crus-galli [2] was 9; in the assay with Echinochloa crus-galli [9], 5. The “herbicidal effects on a 0-9 scale, LIUUT” value in the assay on Linum usitatissimum [3] came out at 9; in the assay with Linum usitatissimum [10] it was 2. Besides, the “herbicidal effects on a 0-9 scale, ORYSA” value in the assay on Oryza sativa [4] and in the assay on Oryza sativa [11] was 0 throughout. The “herbicidal effects on a 0-9 scale, ZEAMX” value in the assay on Zea mays [5] and in the assay on Zea mays [12] was 0 in each case. In addition, the figures for the “herbicidal effects on a 0-9 scale, BEAVA” value in the assay with Beta vulgaris [6] and with Beta vulgaris [13] were 9 and 7, respectively. Further, the “herbicidal effects on a 0-9 scale, AVEFA” value in the assay with Avena fatua [7] is 5; in the assay with Avena fatua [14], 2. Further, the “herbicidal effects on a 0-9 scale, GLXMA” value in the assay on Glycine max [15] was 0; with Glycine max [16], 6.
For `CC(C)CNC(=O)c1nc(-c2ccc(F)cc2)ns1` [Example 19], the “herbicidal effects on a 0-9 scale, SINAL” value turned out to be 8 in the assay on Sinapsis alba [1] and 0 in the assay on Sinapsis alba [8]. Moreover, the “herbicidal effects on a 0-9 scale, ECHCG” value with Echinochloa crus-galli [2] and in the assay on Echinochloa crus-galli [9] was 0 in each case. Besides, the “herbicidal effects on a 0-9 scale, LIUUT” value in the assay on Linum usitatissimum [3] turned out to be 2; with Linum usitatissimum [10], 0. For the same molecule, the “herbicidal effects on a 0-9 scale, ORYSA” value in the assay with Oryza sativa [4] and in the assay with Oryza sativa [11] was 0 in each case. Besides, the “herbicidal effects on a 0-9 scale, ZEAMX” value with Zea mays [5] and in the assay on Zea mays [12] was 0 throughout. The “herbicidal effects on a 0-9 scale, BEAVA” value came out at 8 in the assay with Beta vulgaris [6] and 0 in the assay with Beta vulgaris [13]. Also, the “herbicidal effects on a 0-9 scale, AVEFA” value in the assay with Avena fatua [7] and in the assay with Avena fatua [14] was 0 throughout. Moreover, the figures for the “herbicidal effects on a 0-9 scale, GLXMA” value with Glycine max [15] and in the assay on Glycine max [16] were 0 and 6, respectively.
